Experimental data published in article PMC8838590, “Recognition of Dimethylarginine Analogues by Tandem Tudor Domain Protein Spindlin1” (Molecules, 2022).
pKd: −log10 of the molar value. Starred links: 1 amine or outer side, 2 acyl side, 3 side chain; linkers in the order of their positions; H or OH if unused. Non-standard residues stand in square brackets, D forms with d. Residues, ends and D or L forms follow the SMILES beside them. Groups on a side chain read outwards from the residue. X3 = N=C(NCCC[C@H](N[*:1])C(=O)[*:2])N1CCCCC1; X2 = CCN(CC)C(=N)NCCC[C@H](N[*:1])C(=O)[*:2]; X4 = N=C(NCCC[C@H](N[*:1])C(=O)[*:2])N1CCCC1; X5 = CN(C)C(=N)NCCCC[C@H](N[*:1])C(=O)[*:2]; X6 = CCN(C)C(=N)NCCC[C@H](N[*:1])C(=O)[*:2]; X1 = CN(C)C(=N)NCC[C@H](N[*:1])C(=O)[*:2]; Lys(Me3) = C[N+](C)(C)CCCC[C@H](N)C(=O)O; Orn = NCCC[C@H](N)C(=O)O; CO = O=C([*:1])[*:2]

Experiments:
Spindlin1 (SPIN1_49-262) = target: T1, Spindlin1 (SPIN1_49-262) (Homo sapiens, UniProt Q9Y657); assay: Isothermal titration calorimetry of 15-mer H3K4me3X8 peptides binding to Spindlin1; settings: ITC; for ΔH° / −TΔS°: 25.0 °C, 20 mM Tris, 100 mM NaCl pH 8.0, mean ± SD of 3 repeated ITC experiments
T1 construct: SPIN1_49-262 was expressed and purified as described previously; His tag; made in house; host or cells: E. coli BL21
Protocol: Spindlin1 was dialysed against ITC buffer containing 100 mM NaCl and 20 mM Tris HCl buffer (pH 8.0).
SPIN1_49-262 was expressed and purified as described previously. Briefly, His-tagged SPIN1 was expressed in E.coli strain BL21 at 37 °C until OD600 = 2.0. Protein expression was induced by the addition of 0.1 mM IPTG, followed by incubation at 18 °C overnight. Bacteria were harvested by centrifugation and subsequent resuspension of the pellet in buffer containing 50 mM Hepes pH 7.5, 500 mM NaCl, 10 mM Imidazole, 5% glycerol, 0.5 mM TCEP, and a protease inhibitor cocktail (Sigma, St. Louis, MO, USA). After lysis and centrifugation, His-tagged SPIN1 was affinity purified by Ni^2+-NTA-agarose chromatography (Cytiva, Marlborough, MA, USA) applying a gradient of imidazole. Subsequent size exclusion chromatography (Superdex 75, Cytiva) was performed with buffer containing 10 mM Hepes pH 7.5, 500 mM NaCl, 5% glycerol, and 0.5 mM TCEP.
Isothermal titration calorimetry was performed at 25 °C on a fully automated Microcal Auto-iTC200 (GE Healthcare Life Sciences, Marlborough, MA, USA). SPIN1_49-262 was dialysed against ITC buffer containing 20 mM Tris, 100 mM NaCl pH 8.0. Titrations were carried out with an initial injection of 0.5 μL, followed by 19 injections of 2 μL at a total concentration of 20 μM SPIN1_49-262 and 150-370 μM peptide. Fitting and analyses of the acquired titration curves were performed with Origin 6.0 (Microcal Inc., Northampton, MA, USA) using the One Set of Binding Sites model.

[1] = target: H3K4me3R8me1 peptide (Homo sapiens) (UniProt P68431); settings: cited from earlier work
[2] = target: H3K4me3R8me2s peptide (Homo sapiens) (UniProt P68431); settings: cited from earlier work
[3] = target: H3K4me3R8me2a 10-mer peptide (Homo sapiens) (UniProt P68431); settings: cited from earlier work
[4] = target: H3K4me3K9me3 peptide (Homo sapiens) (UniProt P68431); settings: cited from earlier work
[5] = target: H4K20me3 peptide (Homo sapiens) (UniProt P62805); settings: cited from earlier work

T1 sequence (Q9Y657 49-262): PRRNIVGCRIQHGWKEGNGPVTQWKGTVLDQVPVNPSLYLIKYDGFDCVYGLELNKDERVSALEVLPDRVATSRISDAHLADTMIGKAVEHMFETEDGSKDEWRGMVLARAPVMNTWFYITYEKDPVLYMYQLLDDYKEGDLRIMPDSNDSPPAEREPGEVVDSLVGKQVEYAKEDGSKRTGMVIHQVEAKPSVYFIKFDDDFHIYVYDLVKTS
Sequence of Spindlin1 (Q9Y657 whole entry): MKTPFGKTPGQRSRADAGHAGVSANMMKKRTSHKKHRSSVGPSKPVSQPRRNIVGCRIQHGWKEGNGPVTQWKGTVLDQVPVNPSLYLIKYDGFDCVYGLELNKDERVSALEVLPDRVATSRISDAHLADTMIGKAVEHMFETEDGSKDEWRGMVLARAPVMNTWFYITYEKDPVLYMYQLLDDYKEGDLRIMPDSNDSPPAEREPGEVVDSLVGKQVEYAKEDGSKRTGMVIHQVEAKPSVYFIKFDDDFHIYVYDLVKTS

| Molecule | ΔH° (Spindlin1 (SPIN1_49-262); SD) [kcal/mol] | −TΔS° (Spindlin1 (SPIN1_49-262); SD) [kcal/mol] | further results |
| --- | --- | --- | --- |
| CCN(CC)C(=N)NCCC[C@H](NC(=O)[C@H](C)NC(=O)[C@@H](NC(=O)[C@H](CCC(N)=O)NC(=O)[C@H](CCCC[N+](C)(C)C)NC(=O)[C@@H](NC(=O)[C@H](CCCNC(=N)N)NC(=O)[C@H](C)N)[C@@H](C)O)[C@@H](C)O)C(=O)N[C@@H](CCCCN)C(=O)N[C@@H](CO)C(=O)N[C@H](C(=O)NCC(=O)NCC(=O)N[C@@H](CCCCN)C(=O)N[C@@H](C)C(N)=O)[C@@H](C)O [H3K4me3R8et2a] (H-ART[Lys(Me3)]QTA[X2]KSTGGKA-NH2) | -19.3 ± 0.6 | 9.3 ± 0.6 |  |
| C[C@H](N)C(=O)N[C@@H](CCCNC(=N)N)C(=O)N[C@H](C(=O)N[C@@H](CCCC[N+](C)(C)C)C(=O)N[C@@H](CCC(N)=O)C(=O)N[C@H](C(=O)N[C@@H](C)C(=O)N[C@@H](CCCNC(=N)N(C)C)C(=O)N[C@@H](CCCCN)C(=O)N[C@@H](CO)C(=O)N[C@H](C(=O)NCC(=O)NCC(=O)N[C@@H](CCCCN)C(=O)N[C@@H](C)C(N)=O)[C@@H](C)O)[C@@H](C)O)[C@@H](C)O [H3K4me3R8me2a] | -17.3 ± 1.9 | 7.0 ± 1.9 | ΔH° (Spindlin1 (SPIN1_49-262)): -17.3 kcal/mol; −TΔS° (Spindlin1 (SPIN1_49-262)): 7.0 kcal/mol |
| C[C@H](N)C(=O)N[C@@H](CCCNC(=N)N)C(=O)N[C@H](C(=O)N[C@@H](CCCC[N+](C)(C)C)C(=O)N[C@@H](CCC(N)=O)C(=O)N[C@H](C(=O)N[C@@H](C)C(=O)N[C@@H](CCCCNC(=N)N(C)C)C(=O)N[C@@H](CCCCN)C(=O)N[C@@H](CO)C(=O)N[C@H](C(=O)NCC(=O)NCC(=O)N[C@@H](CCCCN)C(=O)N[C@@H](C)C(N)=O)[C@@H](C)O)[C@@H](C)O)[C@@H](C)O [H3K4me3hR8me2a] (H-ART[Lys(Me3)]QTA[X5]KSTGGKA-NH2) | -20.9 ± 0.7 | 11.0 ± 0.7 |  |
| C[C@H](N)C(=O)N[C@@H](CCCNC(=N)N)C(=O)N[C@H](C(=O)N[C@@H](CCCC[N+](C)(C)C)C(=O)N[C@@H](CCC(N)=O)C(=O)N[C@H](C(=O)N[C@@H](C)C(=O)N[C@@H](CCCNC(=N)N1CCCC1)C(=O)N[C@@H](CCCCN)C(=O)N[C@@H](CO)C(=O)N[C@H](C(=O)NCC(=O)NCC(=O)N[C@@H](CCCCN)C(=O)N[C@@H](C)C(N)=O)[C@@H](C)O)[C@@H](C)O)[C@@H](C)O [H3K4me3R8pyr] (H-ART[Lys(Me3)]QTA[X4]KSTGGKA-NH2) | -22.5 ± 0.4 | 13.0 ± 0.5 |  |
| CCN(C)C(=N)NCCC[C@H](NC(=O)[C@H](C)NC(=O)[C@@H](NC(=O)[C@H](CCC(N)=O)NC(=O)[C@H](CCCC[N+](C)(C)C)NC(=O)[C@@H](NC(=O)[C@H](CCCNC(=N)N)NC(=O)[C@H](C)N)[C@@H](C)O)[C@@H](C)O)C(=O)N[C@@H](CCCCN)C(=O)N[C@@H](CO)C(=O)N[C@H](C(=O)NCC(=O)NCC(=O)N[C@@H](CCCCN)C(=O)N[C@@H](C)C(N)=O)[C@@H](C)O [H3K4me3R8etme] (H-ART[Lys(Me3)]QTA[X6]KSTGGKA-NH2) | -20.8 ± 0.6 | 11.2 ± 0.6 |  |
| C[C@H](N)C(=O)N[C@@H](CCCNC(=N)N)C(=O)N[C@H](C(=O)N[C@@H](CCCC[N+](C)(C)C)C(=O)N[C@@H](CCC(N)=O)C(=O)N[C@H](C(=O)N[C@@H](C)C(=O)N[C@@H](CCCNC(=O)N(C)C)C(=O)N[C@@H](CCCCN)C(=O)N[C@@H](CO)C(=O)N[C@H](C(=O)NCC(=O)NCC(=O)N[C@@H](CCCCN)C(=O)N[C@@H](C)C(N)=O)[C@@H](C)O)[C@@H](C)O)[C@@H](C)O [H3K4me3Cit8me2] (H-ART[Lys(Me3)]QTA[Orn]([CO-NMe2])KSTGGKA-NH2) | -15.6 ± 0.3 | 5.9 ± 0.2 | ΔΔH° (Spindlin1 (SPIN1_49-262); relative to H3K4me3R8me2a): 1.7 kcal/mol; −TΔΔS° (Spindlin1 (SPIN1_49-262); relative to H3K4me3R8me2a): -1.1 kcal/mol |
| Spindlin1 (from UniProt Q9Y657) |  |  | pKd [1]: 6.86; pKd [2]: 7.18; pKd [3]: 7.35; pKd [4]: 7.80; pKd [5]: 6.10 |
| C[C@H](N)C(=O)N[C@@H](CCCNC(=N)N)C(=O)N[C@H](C(=O)N[C@@H](CCCC[N+](C)(C)C)C(=O)N[C@@H](CCC(N)=O)C(=O)N[C@H](C(=O)N[C@@H](C)C(=O)N[C@@H](CCCNC(=N)N1CCCCC1)C(=O)N[C@@H](CCCCN)C(=O)N[C@@H](CO)C(=O)N[C@H](C(=O)NCC(=O)NCC(=O)N[C@@H](CCCCN)C(=O)N[C@@H](C)C(N)=O)[C@@H](C)O)[C@@H](C)O)[C@@H](C)O [H3K4me3R8pip] (H-ART[Lys(Me3)]QTA[X3]KSTGGKA-NH2) | -20.9 ± 0.3 | 11.2 ± 0.1 |  |
| C[C@H](N)C(=O)N[C@@H](CCCNC(=N)N)C(=O)N[C@H](C(=O)N[C@@H](CCCC[N+](C)(C)C)C(=O)N[C@@H](CCC(N)=O)C(=O)N[C@H](C(=O)N[C@@H](C)C(=O)N[C@@H](CCNC(=N)N(C)C)C(=O)N[C@@H](CCCCN)C(=O)N[C@@H](CO)C(=O)N[C@H](C(=O)NCC(=O)NCC(=O)N[C@@H](CCCCN)C(=O)N[C@@H](C)C(N)=O)[C@@H](C)O)[C@@H](C)O)[C@@H](C)O [H3K4me3nR8me2a] (H-ART[Lys(Me3)]QTA[X1]KSTGGKA-NH2) | -16.9 ± 1.3 | 6.8 ± 1.2 |  |
